{"source": "patent US9833497B2", "about": "“Human originated EGF domain proteins and use of the same” (CHENGDU SOURCEBIO LIMITED-LIABILITY COMPANY, priority 2013, dated 2017)", "format_in_all_cases": "cell-based", "key": {"[1]": {"tested_on": "Pseudomonas aeruginosa", "assay": "MIC against Gram-negative bacteria: Pseudomonas aeruginosa", "settings": "5×10^5 CFU/mL", "summary_of_the_method": "(§1)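 Broth microdilution, LB medium, final inoculum 5×10^5 CFU/mL from McFarland 0.5 cultures. Recombinant human EGF domain proteins tested in two-fold steps, n=3. MIC: lowest concentration, no growth.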"}, "[2]": {"tested_on": "Serratia marcescens", "assay": "MIC against Gram-negative bacteria: Serratia marcescens", "settings": "5×10^5 CFU/mL", "summary_of_the_method": "as §1"}, "[3]": {"tested_on": "Klebsiella pneumonia", "assay": "MIC against Gram-negative bacteria: Klebsiella pneumonia", "settings": "5×10^5 CFU/mL", "summary_of_the_method": "as §1"}, "[4]": {"tested_on": "Moraxella catarrhalis", "assay": "MIC against Gram-negative bacteria: Moraxella catarrhalis", "settings": "5×10^5 CFU/mL", "summary_of_the_method": "as §1"}, "[5]": {"tested_on": "E. coli BL21", "assay": "MIC against Gram-negative bacteria: E. coli BL21", "settings": "5×10^5 CFU/mL", "summary_of_the_method": "as §1"}, "[6]": {"tested_on": "E. coli DH5α", "assay": "Antibacterial activity: MIC and growth curve against E. coli DH5α in 96-well plate", "settings": "minimal inhibitory concentration against E. coli DH5α; 96-well plate, 5×10^5 CFU/mL, 37° C., judged after 8 h", "summary_of_the_method": "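MIC taken as lowest protein level with no bacterial growth, tracked by A600 every 30 min during 37 °C, 175 rpm culture. Two-fold protein series 50-12.5 μg/mL final, triplicate wells, against 5×10^5 CFU/mL of LB-washed mid-log cells.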"}, "[7]": {"tested_on": "Citrobacter diversus", "assay": "MIC against Gram-negative bacteria: Citrobacter diversus", "settings": "5×10^5 CFU/mL", "summary_of_the_method": "as §1"}, "[8]": {"tested_on": "Aeromonas hydrophila", "assay": "MIC against Gram-negative bacteria: Aeromonas hydrophila", "settings": "5×10^5 CFU/mL", "summary_of_the_method": "as §1"}, "[9]": {"tested_on": "Proteus mirabilis", "assay": "MIC against Gram-negative bacteria: Proteus mirabilis", "settings": "5×10^5 CFU/mL", "summary_of_the_method": "as §1"}, "[10]": {"tested_on": "Enterobacter cloacae", "assay": "MIC against Gram-negative bacteria: Enterobacter cloacae", "settings": "5×10^5 CFU/mL", "summary_of_the_method": "as §1"}, "[11]": {"tested_on": "Proteus vulgaris", "assay": "MIC against Gram-negative bacteria: Proteus vulgaris", "settings": "5×10^5 CFU/mL", "summary_of_the_method": "as §1"}, "[12]": {"settings": "Pseudomonas aeruginosa, 10 h cultivation at 37° C."}, "[13]": {"settings": "Serratia marcescens, 10 h cultivation at 37° C."}, "[14]": {"settings": "Klebsiella pneumonia, 10 h cultivation at 37° C."}, "[15]": {"settings": "Moraxella catarrhalis, 10 h cultivation at 37° C."}, "[16]": {"settings": "E. coli BL21, 10 h cultivation at 37° C."}, "[17]": {"settings": "Citrobacter diversus, 10 h cultivation at 37° C."}, "[18]": {"settings": "Aeromonas hydrophila, 10 h cultivation at 37° C."}, "[19]": {"settings": "Proteus mirabilis, 10 h cultivation at 37° C."}, "[20]": {"settings": "Enterobacter cloacae, 10 h cultivation at 37° C."}, "[21]": {"settings": "Proteus vulgaris, 10 h cultivation at 37° C."}}}
{"substance": "PRT1361 (SELICPNDCFDRGRCINGTCYCEEGFTGEDCG; listed as Homo sapiens)", "values": [{"measurement": "MIC against P. aeruginosa", "setting": "[1]; [12]", "value": 25, "unit": "µg/mL"}, {"measurement": "MIC against S. marcescens", "setting": "[2]; [13]", "value": 50, "unit": "µg/mL"}, {"measurement": "MIC against K. pneumonia", "setting": "[3]; [14]", "value": 50, "unit": "µg/mL"}, {"measurement": "MIC against M. catarrhalis", "setting": "[4]; [15]", "value": 25, "unit": "µg/mL"}, {"measurement": "MIC against E. coli BL21", "setting": "[5]; [16]", "value": 12.5, "unit": "µg/mL"}, {"measurement": "MIC", "setting": "[6]", "value": 25, "unit": "µg/mL"}, {"measurement": "MIC against C. diversus", "setting": "[7]; [17]", "value": 50, "unit": "µg/mL"}, {"measurement": "MIC against A. hydrophila", "setting": "[8]; [18]", "value": 25, "unit": "µg/mL"}, {"measurement": "MIC against P. mirabilis", "setting": "[9]; [19]", "value": 12.5, "unit": "µg/mL"}, {"measurement": "MIC against E. cloacae", "setting": "[10]; [20]", "value": 12.5, "unit": "µg/mL"}, {"measurement": "MIC against P. vulgaris", "setting": "[11]; [21]", "value": 25, "unit": "µg/mL"}]}
{"substance": "PRT1416 (IEICAADCGGHGVCVGGTCRCEDGWMGAACDQ; listed as Homo sapiens)", "values": [{"measurement": "MIC against P. aeruginosa", "setting": "[1]; [12]", "value": 25, "unit": "µg/mL"}, {"measurement": "MIC against S. marcescens", "setting": "[2]; [13]", "value": 12.5, "unit": "µg/mL"}, {"measurement": "MIC against K. pneumonia", "setting": "[3]; [14]", "value": 50, "unit": "µg/mL"}, {"measurement": "MIC against M. catarrhalis", "setting": "[4]; [15]", "value": 25, "unit": "µg/mL"}, {"measurement": "MIC against E. coli BL21", "setting": "[5]; [16]", "value": 12.5, "unit": "µg/mL"}, {"measurement": "MIC", "setting": "[6]", "value": 25, "unit": "µg/mL"}, {"measurement": "MIC against C. diversus", "setting": "[7]; [17]", "value": 12.5, "unit": "µg/mL"}, {"measurement": "MIC against A. hydrophila", "setting": "[8]; [18]", "value": 25, "unit": "µg/mL"}, {"measurement": "MIC against P. mirabilis", "setting": "[9]; [19]", "value": 12.5, "unit": "µg/mL"}, {"measurement": "MIC against E. cloacae", "setting": "[10]; [20]", "value": 25, "unit": "µg/mL"}, {"measurement": "MIC against P. vulgaris", "setting": "[11]; [21]", "value": 25, "unit": "µg/mL"}]}
{"substance": "PRT670 (DVDECASRASCPTGLCLNTEGSFACSACENGYWVNEDGTACE; listed as Homo sapiens)", "values": [{"measurement": "MIC P. aeruginosa", "setting": "[1]; 96-well plate, 37° C., 10 h", "value": 25, "unit": "µg/mL"}, {"measurement": "MIC S. marcescens", "setting": "[2]; 96-well plate, 37° C., 10 h", "value": 25, "unit": "µg/mL"}, {"measurement": "MIC K. pneumonia", "setting": "[3]; 96-well plate, 37° C., 10 h", "value": 12.5, "unit": "µg/mL"}, {"measurement": "MIC M. catarrhalis", "setting": "[4]; 96-well plate, 37° C., 10 h", "value": 12.5, "unit": "µg/mL"}, {"measurement": "MIC E. coli BL21", "setting": "[5]; 96-well plate, 37° C., 10 h", "value": 12.5, "unit": "µg/mL"}, {"measurement": "MIC", "setting": "[6]", "value": 25, "unit": "µg/mL"}, {"measurement": "MIC C. diversus", "setting": "[7]; 96-well plate, 37° C., 10 h", "value": 25, "unit": "µg/mL"}, {"measurement": "MIC A. hydrophila", "setting": "[8]; 96-well plate, 37° C., 10 h", "value": 12.5, "unit": "µg/mL"}, {"measurement": "MIC P. mirabilis", "setting": "[9]; 96-well plate, 37° C., 10 h", "value": 25, "unit": "µg/mL"}, {"measurement": "MIC E. cloacae", "setting": "[10]; 96-well plate, 37° C., 10 h", "value": 12.5, "unit": "µg/mL"}, {"measurement": "MIC P. vulgaris", "setting": "[11]; 96-well plate, 37° C., 10 h", "value": 12.5, "unit": "µg/mL"}]}
{"substance": "PRT558 (CTCDPRGALDQLCGAGGLCRCRPGYTGTACQECSPGFHGFPSCVP; listed as Homo sapiens)", "values": [{"measurement": "MIC against P. aeruginosa", "setting": "[1]; 96-well plate, 37° C., 10 h", "value": 12.5, "unit": "µg/mL"}, {"measurement": "MIC against S. marcescens", "setting": "[2]; 96-well plate, 37° C., 10 h", "value": 12.5, "unit": "µg/mL"}, {"measurement": "MIC against K. pneumonia", "setting": "[3]; 96-well plate, 37° C., 10 h", "value": 25, "unit": "µg/mL"}, {"measurement": "MIC against M. catarrhalis", "setting": "[4]; 96-well plate, 37° C., 10 h", "value": 25, "unit": "µg/mL"}, {"measurement": "MIC against E. coli BL21", "setting": "[5]; 96-well plate, 37° C., 10 h", "value": 25, "unit": "µg/mL"}, {"measurement": "MIC", "setting": "[6]", "value": 12.5, "unit": "µg/mL"}, {"measurement": "MIC against C. diversus", "setting": "[7]; 96-well plate, 37° C., 10 h", "value": 12.5, "unit": "µg/mL"}, {"measurement": "MIC against A. hydrophila", "setting": "[8]; 96-well plate, 37° C., 10 h", "value": 25, "unit": "µg/mL"}, {"measurement": "MIC against P. mirabilis", "setting": "[9]; 96-well plate, 37° C., 10 h", "value": 50, "unit": "µg/mL"}, {"measurement": "MIC against E. cloacae", "setting": "[10]; 96-well plate, 37° C., 10 h", "value": 50, "unit": "µg/mL"}, {"measurement": "MIC against P. vulgaris", "setting": "[11]; 96-well plate, 37° C., 10 h", "value": 25, "unit": "µg/mL"}]}
{"substance": "PRT102 (DRCLPNYCEHGGECSQSWSTFHCNCTNTGYRGATC; listed as Homo sapiens)", "values": [{"measurement": "MIC (μg/mL) P. aeruginosa", "setting": "[1]; Pseudomonas aeruginosa, 96-well plate, 37° C., 10 h", "value": 12.5, "unit": "µg/mL"}, {"measurement": "MIC (μg/mL) S. marcescens", "setting": "[2]; Serratia marcescens, 96-well plate, 37° C., 10 h", "value": 25, "unit": "µg/mL"}, {"measurement": "MIC (μg/mL) K. pneumonia", "setting": "[3]; Klebsiella pneumonia, 96-well plate, 37° C., 10 h", "value": 12.5, "unit": "µg/mL"}, {"measurement": "MIC (μg/mL) M. catarrhalis", "setting": "[4]; Moraxella catarrhalis, 96-well plate, 37° C., 10 h", "value": 12.5, "unit": "µg/mL"}, {"measurement": "MIC (μg/mL) E. coli BL21", "setting": "[5]; E. coli BL21, 96-well plate, 37° C., 10 h", "value": 12.5, "unit": "µg/mL"}, {"measurement": "MIC", "setting": "[6]", "value": 12.5, "unit": "µg/mL"}, {"measurement": "MIC (μg/mL) C. diversus", "setting": "[7]; Citrobacter diversus, 96-well plate, 37° C., 10 h", "value": 25, "unit": "µg/mL"}, {"measurement": "MIC (μg/mL) A. hydrophila", "setting": "[8]; Aeromonas hydrophila, 96-well plate, 37° C., 10 h", "value": 12.5, "unit": "µg/mL"}, {"measurement": "MIC (μg/mL) P. mirabilis", "setting": "[9]; Proteus mirabilis, 96-well plate, 37° C., 10 h", "value": 25, "unit": "µg/mL"}, {"measurement": "MIC (μg/mL) E. cloacae", "setting": "[10]; Enterobacter cloacae, 96-well plate, 37° C., 10 h", "value": 12.5, "unit": "µg/mL"}, {"measurement": "MIC (μg/mL) P. vulgaris", "setting": "[11]; Proteus vulgaris, 96-well plate, 37° C., 10 h", "value": 12.5, "unit": "µg/mL"}]}
